Values joined by “and” are separate entries in the source; they are usually repeats but may differ in a detail not shown here. Equal values may be shown once.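 A five-concentration, 48-hour dose response in 96-well plates underlies each endpoint, interpolated linearly between surrounding concentrations. The concentration for 50% growth inhibition is given as GI50. TGI: concentration producing complete growth inhibition.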
tested on: MALME-3M melanoma; experiment: inhibition of tumour cell growth, NCI panel, 48 h

Compound | TGI [µM] | GI50 [µM]
CCOC(=O)C(Sc1ccccc1)c1c(OC)cc(=O)oc1/C=[N+](/[O-])c1ccc(N(C)C)cc1 (configuration not stated) | 58.5 | 
COc1ccc2nc3cc(Cl)ccc3c(Sc3ccccc3[N+](=O)[O-])c2c1 | > 100 | 
C/C(CCn1[nH]c(=O)ccc1=O)=N\O | > 100 | 
COc1ccccc1NC(=O)CC(=O)n1nc(C)c(N=Nc2ccccc2C(=O)O)c1C | > 100 | 
CC(=O)N1[C@H](C(=O)O)CS[C@H]1c1ccncc1 | > 100 | 
CC(=O)OC1COC(n2c(=S)n(-c3ccc(C)cc3)c(=O)c3ccccc32)C(OC(C)=O)C1OC(C)=O (configuration not stated) | > 100 | 
COc1cccc(NC(=O)CC(=O)n2nc(C)c(N=Nc3ccccc3)c2C)c1 | > 100 | 
CC(=O)[O][Hg][c]1c(N)c(C)cc(C)c1F | 3.25 | 1.63
c1cc2c(cc1NC1=NCCO1)CCC2 | > 10 | 

tested on: NCI-H226 lung; experiment: inhibition of tumour cell growth, NCI panel, 48 h

Compound | GI50 [µM] | TGI [µM]
NC(CSC(c1ccccc1)(c1ccccc1)c1ccc2c(c1)OCO2)C(=O)O (configuration not stated) | 15.9 | > 84.8
C=CCc1cc(OC)c2c(c1)C(O)CC(c1ccc(OC)c(OC)c1)O2 (configuration not stated) |  | > 100
O=C(NCCNc1nccc(-c2c(-c3cccc(O)c3)nc3sccn23)n1)c1ccccc1O | 9.24 | 32.3
CCCCCCCC(=O)SCC/C=C/[C@@H]1CC(=O)NCc2cccc(n2)C2=N[C@@](C)(CS2)C(=O)N[C@@H](C(C)C)C(=O)N1 | 7.19 | > 33.3
C[C@@H](CS(C)(=O)=O)Nc1ncc2cc(Oc3ccc(F)cc3F)c(=O)n(C)c2n1 | > 25 | > 25
CC(C)=CCCc1c(C)ccc2c1C(=O)C(=O)C(C(C)C)=C2 |  | > 22
COc1cc2c(c(OC)c1O)C(=O)C(OC)C(c1ccc(O)c(O)c1)O2 (configuration not stated) | 4.8 | > 100
Cn1ccnc1C(=O)/C=C/c1ccc(CC(=O)Nc2ccc(Br)cc2)cc1 | 4.15 | > 16.7
N#CC(C#N)=c1ccc(=C2NCC3CCCN23)cc1 (configuration not stated) |  | > 100
O[C@H]1[C@H]2c3cc4c(cc3CN3CCC(=C[C@@H]1O)[C@H]23)OCO4 |  | 29.6
COC(=O)[C@@]12C3=NO[C@]1(C(=O)OC)C(O[Si](C)(C)C(C)(C)C)[C@H]1OC(C)(C)O[C@H]1[C@@H]2C(OCc1ccccc1)CC3 (some centres not stated) |  | > 100
CNC(=O)c1ccccc1Nc1nc(Nc2ccc(N3CCOCC3)cc2OC)ncc1Cl | 1.01 | > 74
O=C(N/C(=C\c1cc(Cl)ccc1Cl)c1nc2[nH]c(=S)[nH]c(=O)c2[nH]1)c1ccccc1 |  | > 100
O=[S@@]1Nc2ccc(Br)cc2S1 |  | > 100
O=C1NC2(CCCCC2)C2CCCCC(O)C12 (configuration not stated) |  | > 100
CCOC(=O)C1=C(C)CC2C(=O)OC(=O)C2C1(C)C (configuration not stated) |  | > 100
CC1=C(C(=O)Nc2ccc(F)c(Cl)c2)C(c2ccc(Cl)cc2)NC(=O)N1 (configuration not stated) | 15.5 | 38.6
Oc1ccc(Cl)cc1-c1cc(-c2ccccc2Cl)[nH]n1 | 13.8 | > 100
CNC(=O)c1cc(Oc2ccc3nc(NC(=O)Nc4ccc(Cl)c(C(F)(F)F)c4)sc3c2)ccn1 | 2.69 | 7.47
COc1ccc2nc3cc(Cl)ccc3c(Sc3ccccc3[N+](=O)[O-])c2c1 |  | 67.8
O=C(O)C(Cc1ccccc1)N1C(=O)N/C(=C\c2ccc(F)cc2)C1=O (configuration not stated) |  | > 100
C/C(CCn1[nH]c(=O)ccc1=O)=N\O |  | > 100
CC(=O)N1[C@H](C(=O)O)CS[C@H]1c1ccncc1 |  | > 100
COc1ccc(C2=CSc3cc(Cl)c(C)cc3S(=O)(=O)N2C(C)=O)cc1 | 15.2 | 60
CC(=O)OC1COC(n2c(=S)n(-c3ccc(C)cc3)c(=O)c3ccccc32)C(OC(C)=O)C1OC(C)=O (configuration not stated) |  | > 100
COc1cccc(NC(=O)CC(=O)n2nc(C)c(N=Nc3ccccc3)c2C)c1 |  | > 100
CC(=O)[O][Hg][c]1c(N)c(C)cc(C)c1F | 16.2 | 44.5
O=C(O)CCSC(=O)Nc1cccc(F)c1 |  | > 100

tested on: OVCAR-4 ovarian; experiment: inhibition of tumour cell growth, NCI panel, 48 h

Compound | GI50 [µM] | TGI [µM]
NC(CSC(c1ccccc1)(c1ccccc1)c1ccc2c(c1)OCO2)C(=O)O (configuration not stated) | 7.81 | > 81.6
C=CCc1cc(OC)c2c(c1)C(O)CC(c1ccc(OC)c(OC)c1)O2 (configuration not stated) |  | > 100
O=C(NCCNc1nccc(-c2c(-c3cccc(O)c3)nc3sccn23)n1)c1ccccc1O | 6.67 | 53.6
CCCCCCCC(=O)SCC/C=C/[C@@H]1CC(=O)NCc2cccc(n2)C2=N[C@@](C)(CS2)C(=O)N[C@@H](C(C)C)C(=O)N1 | 0.766 | > 33.3
C[C@@H](CS(C)(=O)=O)Nc1ncc2cc(Oc3ccc(F)cc3F)c(=O)n(C)c2n1 | > 25 | > 25
CC(C)=CCCc1c(C)ccc2c1C(=O)C(=O)C(C(C)C)=C2 |  | 8.81
COc1cc2c(c(OC)c1O)C(=O)C(OC)C(c1ccc(O)c(O)c1)O2 (configuration not stated) | > 100 | > 100
Cn1ccnc1C(=O)/C=C/c1ccc(CC(=O)Nc2ccc(Br)cc2)cc1 | 4.52 | > 16.7
COC(=O)[C@@H](C)C[C@H](Cc1ccc(F)cc1)NC(=O)c1csc([C@@H](C[C@H](C(C)C)N(C)C(=O)[C@@H](NC(=O)[C@H]2CCCCN2C)C(C)C)OC(C)=O)n1 |  | > 16.7
N#CC(C#N)=c1ccc(=C2NCC3CCCN23)cc1 (configuration not stated) |  | > 100
CCOC(=O)COc1cccc2c1C(=O)CCO2 |  | > 100
Nc1ccc(C(=O)N/C(=C\c2ccc3c(c2)OCO3)c2nc3[nH]c(=S)[nH]c(=O)c3[nH]2)cc1 |  | > 100
O[C@H]1[C@H]2c3cc4c(cc3CN3CCC(=C[C@@H]1O)[C@H]23)OCO4 |  | 8.4
COC(=O)[C@@]12C3=NO[C@]1(C(=O)OC)C(O[Si](C)(C)C(C)(C)C)[C@H]1OC(C)(C)O[C@H]1[C@@H]2C(OCc1ccccc1)CC3 (some centres not stated) |  | 97.2
CNC(=O)c1ccccc1Nc1nc(Nc2ccc(N3CCOCC3)cc2OC)ncc1Cl | 1.95 | > 47.1
O=C(N/C(=C\c1cc(Cl)ccc1Cl)c1nc2[nH]c(=S)[nH]c(=O)c2[nH]1)c1ccccc1 |  | > 100
CN(CC(=O)O)S(=O)(=O)c1ccc2ccccc2c1 |  | > 100
COc1ccc2c(c1)C1(C=N2)CCN(C(C)=O)CC1 |  | > 100
Oc1ccc(Cl)cc1-c1cc(-c2ccccc2Cl)[nH]n1 | 0.28 | > 100
CCOC(=O)C(Sc1ccccc1)c1c(OC)cc(=O)oc1/C=[N+](/[O-])c1ccc(N(C)C)cc1 (configuration not stated) |  | 51.6
COc1ccc2nc3cc(Cl)ccc3c(Sc3ccccc3[N+](=O)[O-])c2c1 |  | > 100
O=C(O)C(Cc1ccccc1)N1C(=O)N/C(=C\c2ccc(F)cc2)C1=O (configuration not stated) |  | > 100
C/C(CCn1[nH]c(=O)ccc1=O)=N\O |  | > 100
COc1ccccc1NC(=O)CC(=O)n1nc(C)c(N=Nc2ccccc2C(=O)O)c1C |  | > 100
CC(=O)N1[C@H](C(=O)O)CS[C@H]1c1ccncc1 |  | > 100
CC(=O)OC1COC(n2c(=S)n(-c3ccc(C)cc3)c(=O)c3ccccc32)C(OC(C)=O)C1OC(C)=O (configuration not stated) |  | > 100
COc1cccc(NC(=O)CC(=O)n2nc(C)c(N=Nc3ccccc3)c2C)c1 |  | > 100
c1cc2c(cc1NC1=NCCO1)CCC2 |  | > 10

tested on: SK-OV-3 ovarian; experiment: inhibition of tumour cell growth, NCI panel, 48 h

Compound | GI50 | TGI [µM]
NC(CSC(c1ccccc1)(c1ccccc1)c1ccc2c(c1)OCO2)C(=O)O (configuration not stated) | 0.42 µM | > 100
C=CCc1cc(OC)c2c(c1)C(O)CC(c1ccc(OC)c(OC)c1)O2 (configuration not stated) |  | > 100
O=C(NCCNc1nccc(-c2c(-c3cccc(O)c3)nc3sccn23)n1)c1ccccc1O | 4.31 µM | 39.7
CCCCCCCC(=O)SCC/C=C/[C@@H]1CC(=O)NCc2cccc(n2)C2=N[C@@](C)(CS2)C(=O)N[C@@H](C(C)C)C(=O)N1 | 1.23 µM | 11
C[C@@H](CS(C)(=O)=O)Nc1ncc2cc(Oc3ccc(F)cc3F)c(=O)n(C)c2n1 | > 25 µM | > 25
CC(C)=CCCc1c(C)ccc2c1C(=O)C(=O)C(C(C)C)=C2 |  | > 22
COc1cc2c(c(OC)c1O)C(=O)C(OC)C(c1ccc(O)c(O)c1)O2 (configuration not stated) | 8.23 µM | > 100
Cn1ccnc1C(=O)/C=C/c1ccc(CC(=O)Nc2ccc(Br)cc2)cc1 | 8.88 µM | > 16.7
COC(=O)[C@@H](C)C[C@H](Cc1ccc(F)cc1)NC(=O)c1csc([C@@H](C[C@H](C(C)C)N(C)C(=O)[C@@H](NC(=O)[C@H]2CCCCN2C)C(C)C)OC(C)=O)n1 | 0.00736 µM and 0.0553 µM | > 16.7
N#CC(C#N)=c1ccc(=C2NCC3CCCN23)cc1 (configuration not stated) |  | > 100
CCOC(=O)COc1cccc2c1C(=O)CCO2 |  | > 100
Nc1ccc(C(=O)N/C(=C\c2ccc3c(c2)OCO3)c2nc3[nH]c(=S)[nH]c(=O)c3[nH]2)cc1 |  | > 100
O[C@H]1[C@H]2c3cc4c(cc3CN3CCC(=C[C@@H]1O)[C@H]23)OCO4 |  | 20.5
COC(=O)[C@@]12C3=NO[C@]1(C(=O)OC)C(O[Si](C)(C)C(C)(C)C)[C@H]1OC(C)(C)O[C@H]1[C@@H]2C(OCc1ccccc1)CC3 (some centres not stated) |  | > 100
